What was measured:
[1] = test system: Matricaria; assay: Pre-emergence test/greenhouse; type: in vivo; details: 125 g ai./ha, after three weeks
Experimental: (§1) Pre-emergence Test Solvent: 5 parts by weight of acetone Emulsifier: 1 part by weight of alkylaryl polyglycol ether To produce a suitable preparation of active compound, 1 part by weight of active compound is mixed with the stated amount of solvent, the stated amount of emulsifier is added and the concentrate is diluted with water to the desired concentration. Seeds of the test plants are sown in normal soil. After about 24 hours, the soil is sprayed with the preparation of the active compound in such a way as to apply the particular amounts of active compound desired per unit area The concentration of the spray liquor is chosen so that the particular amounts of active compound desired are applied in 1000 l of water/ha. After three weeks, the degree of damage to the plants is rated in % damage in comparison to the development of the untreated control. The figures denote: [table]

[2] = test system: Soya beans; assay: Pre-emergence test/greenhouse; type: in vivo; details: 125 g ai./ha, after three weeks
Experimental: as §1

[3] = test system: Chenopodium; assay: Pre-emergence test/greenhouse; type: in vivo; details: 125 g ai./ha, after three weeks
Experimental: as §1

[4] = test system: Lolium; assay: Pre-emergence test/greenhouse; type: in vivo; details: 125 g ai./ha, after three weeks
Experimental: as §1

[5] = test system: Solanum; assay: Pre-emergence test/greenhouse; type: in vivo; details: 125 g ai./ha, after three weeks
Experimental: as §1

[6] = test system: Maize; assay: Pre-emergence test/greenhouse; type: in vivo; details: 125 g ai./ha, after three weeks
Experimental: as §1

[7] = test system: Alopecurus; assay: Pre-emergence test/greenhouse; type: in vivo; details: 125 g ai./ha, after three weeks
Experimental: as §1

[8] = test system: Sorghum; assay: Pre-emergence test/greenhouse; type: in vivo; details: 125 g ai./ha, after three weeks
Experimental: as §1

[9] = test system: Amaranthus; assay: Pre-emergence test/greenhouse; type: in vivo; details: 125 g ai./ha, after three weeks
Experimental: as §1

[10] = test system: weeds; assay: Pre-emergence test; type: in vivo; details: cf. Tables A-1 to A-5
Experimental: as §1

[11] = test system: Stellaria; assay: Post-emergence test/greenhouse; type: in vivo; details: 60 g ai./ha, rated after three weeks vs untreated control
Experimental: as §1, with “Post-emergence” for “Pre-emergence”, “Test plants which have a height” for “Seeds”, “5-15 cm” for “the test plants”, “are” for “are sown in normal soil. After about 24 hours, the soil is”, “area.” for “area”

[12] = test system: Xanthium; assay: Post-emergence test/greenhouse; type: in vivo; details: for Xanthium, % damage: rated after three weeks vs untreated control; for % damage, Xanthium: after three weeks
Experimental: as §1, with “Post-emergence” for “Pre-emergence”, “Test plants which have a height” for “Seeds”, “5-15 cm” for “the test plants”, “are” for “are sown in normal soil. After about 24 hours, the soil is”, “area.” for “area”

[13] = test system: Solanum; assay: Post-emergence test/greenhouse; type: in vivo; details: for Solanum, % damage: rated after three weeks vs untreated control; for % damage, Solanum: after three weeks
Experimental: as §1, with “Post-emergence” for “Pre-emergence”, “Test plants which have a height” for “Seeds”, “5-15 cm” for “the test plants”, “are” for “are sown in normal soil. After about 24 hours, the soil is”, “area.” for “area”

[14] = test system: Wheat; assay: Post-emergence test/greenhouse; type: in vivo; details: for Wheat, % damage: rated after three weeks vs untreated control; for % damage, Wheat: after three weeks
Experimental: as §1, with “Post-emergence” for “Pre-emergence”, “Test plants which have a height” for “Seeds”, “5-15 cm” for “the test plants”, “are” for “are sown in normal soil. After about 24 hours, the soil is”, “area.” for “area”

[15] = test system: Ipomoea; assay: Post-emergence test/greenhouse; type: in vivo; details: 60 g ai./ha, rated after three weeks vs untreated control
Experimental: as §1, with “Post-emergence” for “Pre-emergence”, “Test plants which have a height” for “Seeds”, “5-15 cm” for “the test plants”, “are” for “are sown in normal soil. After about 24 hours, the soil is”, “area.” for “area”

[16] = test system: Sorghum; assay: Post-emergence test/greenhouse; type: in vivo; details: 60 g ai./ha, rated after three weeks vs untreated control
Experimental: as §1, with “Post-emergence” for “Pre-emergence”, “Test plants which have a height” for “Seeds”, “5-15 cm” for “the test plants”, “are” for “are sown in normal soil. After about 24 hours, the soil is”, “area.” for “area”

[17] = test system: weeds; assay: Post-emergence test; type: in vivo; details: cf. Tables B-1 to B-4
Experimental: as §1, with “Post-emergence” for “Pre-emergence”, “Test plants which have a height” for “Seeds”, “5-15 cm” for “the test plants”, “are” for “are sown in normal soil. After about 24 hours, the soil is”, “area.” for “area”

[18] = test system: Amaranthus; assay: Post-emergence test/greenhouse; type: in vivo; details: for % damage, Amaranthus: post-emergence, after three weeks
Experimental: as §1, with “Post-emergence” for “Pre-emergence”, “Test plants which have a height” for “Seeds”, “5-15 cm” for “the test plants”, “are” for “are sown in normal soil. After about 24 hours, the soil is”, “area.” for “area”

[19] = test system: Matricaria; assay: Post-emergence test/greenhouse; type: in vivo; details: after three weeks
Experimental: as §1, with “Post-emergence” for “Pre-emergence”, “Test plants which have a height” for “Seeds”, “5-15 cm” for “the test plants”, “are” for “are sown in normal soil. After about 24 hours, the soil is”, “area.” for “area”

[20] = log P n-octanol/water by the HPLC method; type: physicochemical; details: at pH 2, eluent acetonitrile containing 1% of H3PO4
[21] = Table B-4, post-emergence, 60 g ai./ha

## CCSc1cccc(OC(F)(F)F)c1S(=O)(=O)NC(=O)n1nc(OC)n(C)c1=O [Example 40]
[1]
  % damage, Matricaria: 100%
[2]
  % damage, Soya beans: 20%
[3]
  % damage, Chenopodium: 100%
[4]
  % damage, Lolium: 95%
[5]
  % damage, Solanum: 100%
[6]
  % damage, Maize: 5%
[7]
  % damage, Alopecurus: 100%
[8]
  % damage, Sorghum: 100%
[9]
  % damage, Amaranthus: 100%
[10]
  activity against weeds: very strong activity
[11]
  Stellaria, % damage: 95%
[12]; post-emergence, 60 g ai./ha
  Xanthium, % damage: 100%
[13]; post-emergence, 60 g ai./ha
  Solanum, % damage: 95%
[14]; 60 g ai./ha
  Wheat, % damage: 20%
[15]
  Ipomoea, % damage: 90%
[16]; post-emergence
  Sorghum, % damage: 80%
[17]
  activity against weeds: very strong activity

## CCSc1cccc(OC(F)(F)F)c1S(=O)(=O)NC(=O)n1nc(SC)n(C)c1=O [Example 41]
[1]
  % damage, Matricaria: 100%
[2]
  % damage, Soya beans: 20%
[3]
  % damage, Chenopodium: 100%
[4]
  % damage, Lolium: 80%
[5]
  % damage, Solanum: 100%
[6]
  % damage, Maize: 10%
[7]
  % damage, Alopecurus: 100%
[8]
  % damage, Sorghum: 90%
[9]
  % damage, Amaranthus: 100%
[10]
  activity against weeds: very strong activity

## CCc1nn(C(=O)NS(=O)(=O)c2c(C)cccc2SC)c(=O)n1C [Example 49]
[11]
  Stellaria, % damage: 70%
[12]; [21]
  Xanthium, % damage: 95%
[12]; post-emergence, 60 g ai./ha
  Xanthium, % damage: 95%
[13]; [21]
  Solanum, % damage: 90%
[13]; post-emergence, 60 g ai./ha
  Solanum, % damage: 90%
[14]; 60 g ai./ha
  Wheat, % damage: 20%
[15]
  Ipomoea, % damage: 90%
[16]; Table B-4, post-emergence
  Sorghum, % damage: 90%
[16]; post-emergence
  Sorghum, % damage: 90%
[18]; Table B-4, post-emergence, 60 g ai./ha, rated after three weeks vs untreated control
  Amaranthus, % damage: 95%
[17]
  activity against weeds: very strong activity

## CSc1cccc(SC)c1S(=O)(=O)NC(=O)n1nc(SC)n(C)c1=O [Example 51]
[19]; 125 g ai./ha
  % damage, Matricaria: 95%
[12]; post-emergence, 125 g ai./ha
  % damage, Xanthium: 95%
[13]; post-emergence, 125 g ai./ha
  % damage, Solanum: 95%
[14]; 125 g ai./ha
  % damage, Wheat: 20%
[18]; 125 g ai./ha
  % damage, Amaranthus: 95%
[17]
  activity against weeds: very strong activity

## CCSc1cccc(C)c1S(=O)(=O)NC(=O)n1nc(CC)n(C)c1=O [Example 55]
[19]; 60 g ai./ha
  % damage, Matricaria: 95%
[12]; post-emergence, 60 g ai./ha
  % damage, Xanthium: 100%
[13]; post-emergence, 60 g ai./ha
  % damage, Solanum: 90%
[14]; 60 g ai./ha
  % damage, Wheat: 20%
[18]; 60 g ai./ha
  % damage, Amaranthus: 95%
[17]
  activity against weeds: very strong activity

## COc1nn(C(=O)NS(=O)(=O)c2c(SCC(F)F)cccc2C(F)(F)F)c(=O)n1C [Example 99]
[20]
  log P: (log P = 2.59)

## COc1nn(C(=O)NS(=O)(=O)c2c(SCC(F)F)cccc2C(F)(F)F)c(=O)n1C1CC1 [Example 100]
[20]
  log P: (log P = 2.96)

## CSc1nn(C(=O)NS(=O)(=O)c2c(C)cccc2SCC(F)F)c(=O)n1C [Example 101]
[20]
  log P: (log P = 2.73)
